Results reported in patent US10514377B2, “Method of diagnosing and therapeutically treating a patient for a traumatic brain injury” (priority 2010, dated 2019).

Tested on: rats subjected to impact acceleration injury
Assay: Impact acceleration injury (traumatic brain injury) in rats, GFAP immuno-fluorescence of cortex 24 hours after injury
Assay type: in vivo
Conditions: rat
Source text: FIG. 3 through 5 represent respectively, representative photomicrographs of three groups of ten rats which have been subjected to the development of traumatic brain injury through impact by a weight under experimental conditions described hereinafter.
Low and high magnification micrographs of glial fibrillary acidic proteins (GFAP) immuno-fluorescence using a laser-scanning confocal microscope produced FIGS. 3 through 5. The GFAP antibody labels the intermediate filaments of most astrocytes in the brain. These photomicrographs, which were taken 24 hours after the animals were subjected to impact acceleration injury, show areas of cortex slightly lateral to the midline. The pial surface is at the top of the images and the midline is to the left of all images. In the sham animals shown in FIG. 3, a normal distribution of GFAP labeled astrocytes is seen, including their endfeet which surround the neurovasculature. […] There is also a patchy loss of GFAP-labeled astrocytes throughout the cortex and the vasculature shown by the arrow heads (as contrasted with the full arrows) appears damaged. It should also be noted that many of the remaining astrocytes appear to be hypertrophied. The loss of all GFAP-immunoreactivity and appearance of astrocyte hypertrophy are indicative of a neuroinflammatory response to injury.
In order to provide additional information regarding the invention, experiments were performed on animals who were subjected to the impact acceleration injury described hereinbefore, with the animals subsequently being sacrificed and the brains examined 24 hours after the injury. Tests were performed with body specimens which were urinary excretion and also with blood, either blood plasma or blood serum. In each group of ten animals, all had their urine tested and six had blood tested. With the sham animals, the mean urinary excretion values of marinobufagenin were 423±130 (SE)pgMBG/mg creatinine. With the impact acceleration injury rats, the mean urinary excretion values of marinobufagenin were […]. […] These tests confirm the evaluation of marinobufagenin in both urine and blood when an impact acceleration injury is present.

[1] = 120 μg bolus about 90 minutes after injury, 24 hours after injury, FIG. 5

C[C@]12CC[C@H](O)C[C@H]1CC[C@@H]1[C@@H]2CC[C@]2(C)[C@@H](c3ccc(=O)oc3)C[C@H]3O[C@]132 [resibufogenin]
GFAP immunoreactivity [1]: reduce the decrease in GFAP immunoreactivity | appearance of GFAP labeled astrocytes (normal vs hypertrophied) [1]: a greater proportion of GFAP labeled astrocytes have a normal, rather than a hypertrophied appearance | glial scar in cortex [1]: no observed glial scar | alterations after impact acceleration injury (glial scar, patchy loss of GFAP-labeled astrocytes, damaged vasculature, astrocyte hypertrophy) (120 μg bolus of resibufogenin about 90 minutes after injury, cortex examined 24 hours after injury, FIG. 5 vs FIG. 4): most of these alterations are ameliorated
